Reference: patent US9790233B2, “Compositions and methods of modulating 15-PGDH activity” (CASE WESTERN RESERVE UNIVERSITY, priority 2012, dated 2017)
Like-named read-outs stand apart in the source and are kept apart here.

What was measured:
15-PGDH protein = 15-PGDH protein (Homo sapiens (Human), UniProt P15428); test: Inhibition of enzymatic activity of recombinant 15-PGDH in vitro (tritium transfer from PGE2 or NADH fluorescence); format: biochemical; conditions: for inhibition at […]: read-out: Enzyme inhibition % ([…]), recombinant 15-PGDH, […] compound, Table 18; for IC50: recombinant 15-PGDH in vitro, read-out: Enzyme inhibition (IC50)
Chain of 15-PGDH protein (P15428 whole entry, the tested form may be a part): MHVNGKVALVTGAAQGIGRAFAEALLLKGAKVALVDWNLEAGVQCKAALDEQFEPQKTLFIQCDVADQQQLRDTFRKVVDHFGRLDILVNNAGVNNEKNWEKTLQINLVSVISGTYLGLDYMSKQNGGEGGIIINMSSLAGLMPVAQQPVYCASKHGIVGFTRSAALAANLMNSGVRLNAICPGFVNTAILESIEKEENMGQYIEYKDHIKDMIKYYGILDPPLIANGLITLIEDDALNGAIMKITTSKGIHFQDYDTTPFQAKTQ

[1] = tested on: 15-PGDH luciferase fusion construct in V9m reporter cell line; test: 15-PGDH-luciferase fusion gene reporter induction, V9m cells; format: cell-based
[2] = tested on: 15-PGDH luciferase fusion construct in LS174T reporter cell line; test: 15-PGDH-luciferase fusion gene reporter induction, LS174T cells; format: cell-based; conditions: Homo sapiens
[3] = tested on: 15-PGDH luciferase fusion construct in Vaco503 reporter cell line; test: 15-PGDH-luciferase fusion gene reporter induction, V503 cells; format: cell-based
[4] = Survival after whole body irradiation; format: in vivo, C57BL/6J mice; conditions: 11 Gy
A549 cells = test: PGE2 levels in the medium of IL1-beta stimulated A549 cells;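 as to all read-outs here: PGE2 in the collected culture medium quantified by enzyme immunoassay (ELISA), with data drawn from three independent experiments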; format: cell-based; conditions: for rank of PGE2 level in the medium / rank of reduction in levels of PGE2 in the medium: 100 nM drug; for rank of PGE2 level in the medium: FIG. 44; for rank of reduction in levels of PGE2 in the medium: FIG. 94
[5] = read-out: Enzyme inhibition % (7.5 μM)
[6] = read-out: V9M-SC3 Reporter activity ([…]) (%), […], Table 18, read-out: V9M-SC3 Reporter activity (2.5 μM) (%)
[7] = read-out: Ls174T-SC1 reporter activity, % ([…]), […], Table 18, read-out: Ls174T-SC1 reporter activity, % (2.5 μM)
[8] = read-out: Ls174T-SC1 reporter activity, % ([…]), […], Table 18, read-out: Ls174T-SC1 reporter activity, % (7.5 μM)
[9] = read-out: V503-3H9-7 reporter activity, % ([…]), […], Table 18, read-out: V503-3H9-7 reporter activity, % (2.5 μM)
[10] = read-out: V503-3H9-7 reporter activity, % ([…]), […], Table 18, read-out: V503-3H9-7 reporter activity, % (7.5 μM)
[11] = read-out: V9M reporter activity ([…]), […], % increased luciferase activity over basal level, 100 = doubling, read-out: V9M reporter activity (2.5 uM)
[12] = read-out: V9M reporter activity ([…]), […], % increased luciferase activity over basal level, 100 = doubling, read-out: V9M reporter activity (7.5 uM)
[13] = read-out: LS174T reporter activity ([…]), […], % increased luciferase activity over basal level, read-out: LS174T reporter activity (2.5 uM)
[14] = read-out: LS174T reporter activity ([…]), […], % increased luciferase activity over basal level, read-out: LS174T reporter activity (7.5 uM)
[15] = read-out: V503 reporter activity ([…]), […], % increased luciferase activity over basal level, read-out: V503 reporter activity (2.5 uM)
[16] = read-out: V503 reporter activity ([…]), […], % increased luciferase activity over basal level, read-out: V503 reporter activity (7.5 uM)
[17] = read-out: V9M-SC3 Reporter activity ([…]) (%), V9m reporter cells, […] compound, % induction of luciferase activity over basal level, read-out: V9M-SC3 Reporter activity (2.5 μM) (%)
[18] = read-out: V9M-SC3 Reporter activity ([…]), %, V9m reporter cells, […] compound, % induction of luciferase activity over basal level, read-out: V9M-SC3 Reporter activity (7.5 μM), %
[19] = read-out: Ls174T-SC1 reporter activity, % ([…]), LS174T reporter cells, […] compound, % induction of luciferase activity over basal level, read-out: Ls174T-SC1 reporter activity, % (2.5 μM)
[20] = read-out: Ls174T-SC1 reporter activity, % ([…]), LS174T reporter cells, […] compound, % induction of luciferase activity over basal level, read-out: Ls174T-SC1 reporter activity, % (7.5 μM)
[21] = read-out: V503-3H9-7 reporter activity, % ([…]), V503 reporter cells, […] compound, % induction of luciferase activity over basal level, read-out: V503-3H9-7 reporter activity, % (2.5 μM)
[22] = read-out: V503-3H9-7 reporter activity, % ([…]), V503 reporter cells, […] compound, % induction of luciferase activity over basal level, read-out: V503-3H9-7 reporter activity, % (7.5 μM)
[23] = read-out: V9M reporter activity ([…]), […], % induction of luciferase activity over basal level, Table 17, read-out: V9M reporter activity (2.5 μM)
[24] = read-out: V9M reporter activity ([…]), […], % induction over basal level, Table 17, read-out: V9M reporter activity (7.5 μM)
[25] = read-out: LS174T reporter activity ([…]), […], % induction over basal level, Table 17, read-out: LS174T reporter activity (2.5 μM)
[26] = read-out: lS174T reporter activity ([…]), […], % induction over basal level, Table 17, read-out: lS174T reporter activity (7.5 μM)
[27] = read-out: V503 reporter activity ([…]), […], % induction over basal level, Table 17, read-out: V503 reporter activity (2.5 μM)
[28] = read-out: V503 reporter activity ([…]), […], % induction over basal level, Table 17, read-out: V503 reporter activity (7.5 μM)

Row | Molecule | activation at […] [1, 17] [%] | activation at […] [1, 18] [%] | activation at […] [2, 19] [%] | activation at […] [2, 20] [%] | activation at […] [3, 21] [%] | activation at […] [3, 22] [%] | other results
1 | COc1ccc(NC(=O)CN(c2cc(OC)ccc2OC)S(=O)(=O)c2ccccc2)cc1 [333447-10-2] | – | – | – | – | – | – | inhibition at […] (15-PGDH protein; read-out: Enzyme inhibition % (2.5 μM)): 27%; inhibition at […] (15-PGDH protein; [5]): 46.5%; percent induction of reporter activity over basal level at […] ([1]; read-out: V9M-SC3 Reporter activity % ([…]), 7.5 μM, Table 18): 10%; activation at […] [1, 6]: -0.5%; activation at […] [2, 7]: 7.54%; activation at […] [2, 8]: 14.4%; activation at […] [3, 9]: 76.9%; activation at […] [3, 10]: 159%
2 | CCCC[S+]([O-])c1ncccc1[N+](=O)[O-] (stereo not shown) [SW208069, 2-(butylsulfinyl)-3-nitropyridine] | – | – | – | – | – | – | IC50 (15-PGDH protein; Table 2, cells printed in uM): > 7.5 µM
3 | 2-(butylsulfinyl)-4-phenyl-6-(thiophen-2-yl)thieno[2,3-b]pyridin-3-amine [SW033291] | – | – | – | – | – | – | longer survival than vehicle control ([4]; 5 mg/kg IP daily): 48 h; day on which all mice were dead ([4]; control day 8): 10 days
4 | COc1ccc(OC)c(N(CC(=O)Nc2ccc(C)cc2)S(=O)(=O)c2ccccc2)c1 [311333-86-5] | – | – | – | – | – | – | inhibition at […] (15-PGDH protein; [5]): 34%; activation at […] [1, 6]: 53%; activation at […] [2, 7]: 30%; activation at […] [2, 8]: 53.4%; activation at […] [3, 9]: 102%; activation at […] [3, 10]: 131%
5 | CCCC[S+]([O-])c1sc2nc(-c3nccs3)cc(-c3ccccc3)c2c1N (stereo not shown) [SW208066, 2-(butylsulfinyl)-4-phenyl-6-(thiazol-2-yl)thieno[2,3-b]pyridin-3-amine] | – | – | – | – | – | – | rank of PGE2 level in the medium (A549 cells): highest levels of PGE2
6 | CCCC[S+]([O-])c1sc2nc(-c3cccs3)nc(-c3ccccc3)c2c1N (stereo not shown) [SW208067, 6-(butylsulfinyl)-4-phenyl-2-(thiophen-2-yl)thieno[2,3-d]pyrimidin-5-amine] | – | – | – | – | – | – | activation at […] [1, 11]: 122%; activation at […] [1, 12]: 108%; activation at […] [2, 13]: 94.3%; activation at […] [2, 14]: 79.6%; activation at […] [3, 15]: 94.3%; activation at […] [3, 16]: 79.6%; rank of PGE2 level in the medium (A549 cells): highest levels of PGE2
7 | COc1ccc(S(=O)(=O)N(CC(=O)N2CCOCC2)c2cc(OC)ccc2OC)cc1 [SW207997] | 59.5 | 71 | 87.6 | 94.1 | 149 | 157 | rank of reduction in levels of PGE2 in the medium (A549 cells): greatest reduction in levels of PGE2
8 | COc1ccc(S(=O)(=O)N(CC(=O)N2CCCCCC2)c2cc(OC)ccc2OC)cc1 [SW207998] | 53.4 | 58.9 | 65.2 | 77 | 144 | 147 | rank of reduction in levels of PGE2 in the medium (A549 cells): greatest reduction in levels of PGE2
9 | CCCC[S@](C)(O)c1sc2nc(-c3cccs3)cc(-c3ccccc3)c2c1N [SW033291 isomer B] | – | – | – | – | – | – | IC50 (15-PGDH protein; Table 2): 0.00076 µM
10 | CCOC(=O)CN(c1cc(OC)ccc1OC)S(=O)(=O)c1ccccc1 [SW202951] | 4.56 | 17.7 | 34.3 | 47.6 | 97.5 | 131 | Decrease PGE-2 (IL-1beta-A549, %) (A549 cells; media of IL-1beta stimulated A549 cells): −1.01%
11 | COc1ccc(OC)c(N(CC(=O)OC2CCCCC2)S(=O)(=O)c2ccccc2)c1 [SW202978] | -13.8 | -0.07 | -10.1 | 20.4 | 46.8 | 116 | –
12 | COc1ccc(OC)c(N(CC(=O)Nc2cccc(Cl)c2)S(=O)(=O)c2ccc(OC)c(OC)c2)c1 [compound 785254] | – | – | – | – | – | – | activation at […] [1, 23]: -16.1%; activation at […] [1, 24]: -8.48%; activation at […] [2, 25]: 2.93%; activation at […] [2, 26]: 4.29%; activation at […] [3, 27]: 16.1%; activation at […] [3, 28]: 28.3%
13 | COc1ccc(OC)c(N(CC(=O)OC(C)(C)C)S(=O)(=O)c2ccccc2)c1 [SW202979] | -14.4 | 10.8 | -8.92 | 17.8 | 41.6 | 133 | –
14 | COc1cccc(NC(=O)CN(c2cc(OC)ccc2OC)S(=O)(=O)c2ccccc2)c1 [SW202976] | -18.5 | 9.6 | -9.97 | 30.1 | 36.8 | 138 | –
15 | COc1ccc(OC)c(N(C(C)C(=O)Nc2cccnc2)S(=O)(=O)c2ccccc2)c1 (stereo not shown) [SW202991] | -25 | -7.5 | -15.6 | 2.09 | -6.08 | 8.9 | –
16 | COC(=O)CN(c1cc(OC)ccc1OC)S(=O)(=O)c1ccccc1 [SW202980] | -27.6 | -13.4 | -7.34 | 5.17 | 11.4 | 50.6 | –
17 | O=C(CN(c1ccc2c(c1)OCCO2)S(=O)(=O)c1ccccc1)Nc1cccnc1 [701217-00-7] | – | – | – | – | – | – | activation at […] [1, 6]: -2.05%; activation at […] [2, 7]: -6.89%; activation at […] [2, 8]: -0.54%; activation at […] [3, 9]: 20.1%; activation at […] [3, 10]: 33.4%
18 | CCc1ccccc1NC(=O)CN(c1ccc(OC)cc1OC)S(=O)(=O)c1ccccc1 [compound 407572] | – | – | – | – | – | – | activation at […] [1, 23]: -8.45%; activation at […] [1, 24]: -6.12%; activation at […] [2, 25]: 2.22%; activation at […] [2, 26]: 6.94%; activation at […] [3, 27]: 17.2%; activation at […] [3, 28]: 35.9%
19 | COc1ccc(OC)c(N(CC(=O)Nc2cccnc2)S(=O)(=O)c2ccccc2C(F)(F)F)c1 [SW202944] | -0.95 | -3.73 | 32.5 | 15.8 | 131 | 94.6 | –
20 | COc1ccc(OC)c(N(CC(=O)Nc2cccnc2)C(C)=O)c1 [SW202952] | -20.7 | -19.5 | -10.3 | 10.6 | 26.2 | 7.16 | –
21 | COc1ccc(OC)c(N(CC(=O)N2CCCc3ccccc32)S(=O)(=O)c2ccccc2)c1 [SW208006] | 34.9 | 0.15 | 38.2 | 42.2 | 89.7 | 43.9 | –
22 | CCCCS(=O)(=O)c1sc2nc(-c3cccs3)cc(-c3ccccc3)c2c1N [SW208078, 2-(butylsulfonyl)-4-phenyl-6-(thiophen-2-yl)thieno[2,3-b]pyridin-3-amine] | – | – | – | – | – | – | activation at […] [1, 11]: 36.2%; activation at […] [1, 12]: 34.9%; activation at […] [2, 13]: 72.7%; activation at […] [2, 14]: 40%; activation at […] [3, 15]: 87.7%; activation at […] [3, 16]: 83.8%
23 | CCOC(=O)c1ccc(NC(=O)CN(c2cc(OC)ccc2OC)S(=O)(=O)c2ccc(OC)c(OC)c2)cc1 [compound 1003132] | – | – | – | – | – | – | activation at […] [1, 23]: -5.6%; activation at […] [1, 24]: -0.21%; activation at […] [2, 25]: 5.16%; activation at […] [2, 26]: 1.73%; activation at […] [3, 27]: 15.4%; activation at […] [3, 28]: 16.1%
